From patent US6365201B1, “Phytodrug for management of peptic ulcer and methods of preparing and using same” (National Institute for Pharmaceutical Research and …, priority 1997, dated 2002)

Test system: small intestinal transit
Assay: Small intestinal transit in mice, charcoal meal method
Type: in vivo
Conditions: reference, dose not given
Description: Drugs that delay the small intestinal transit time have beneficial effects on ulcer patients. The effect of the Indigofera […] extract on small intestinal transit in mice was tested using the charcoal meal method.

## NC[C@H](O)c1ccc(O)c(O)c1 [Noradrenaline]
  % distance traveled: 64.6 ± 9.0%
  % inhibition: 35.4%
